In patent US20070197560A1, “cGMP PDE 5 inhibitors for inhalation in the treatment of sexual dysfunction” (priority 1998, published 2007):
One block for each molecule: values may come before it.

Experiments:
[1] = rodent pharmacokinetic model simulating inhalation: intratracheal dry powder blend with lactose; conditions: rat
Procedure: (§1) A calculated nominal dose of 8.4 μmol/kg is administered to each of 3 male Wistar:Han rats by administration directly into the trachea via the mouth and vocal chords from a Penn-Century dry powder delivery device actuated via a 2 ml syringe containing air as a propellent.
(§2) A calculated nominal dose of 2.1 μmol/kg is administered to each of 4 male Wistar:Han rats by administration directly into the trachea via the mouth and vocal chords from a Penn-Century dry powder delivery device actuated via a 2 ml syringe containing air as a propellent.
(§3) Each of 3 animals receives a dose equivalent to 2.1 μmol/kg.

in vivo = conditions: male, Wistar:Han, rat, inhaled or intranasal, 2.1 umol/kg
Procedure: as §1, §2, §3

[2] = parameters: species or system Male Wistar:Han rats; conditions: rat, in vivo, inhaled or intranasal, 2.1 umol/kg, pH 6
Procedure: Male Wistar:Han rats used for this model are supplied by Harlan UK Ltd at 105 days of age and approximately 350 g weight. They are fed ad libitum with a standard laboratory diet and housed under controlled conditions (12 hours light/dark cycle; 20° C.) for at least one week prior to the experiment.
Compound A is dissolved, at a concentration of 1.75 mg/ml in 0.9% saline which has been acidified with 1M aqueous HCI (5 μl), giving a clear solution of pH 5.0. To the solution is added 1M aqueous NaOH (2μl) to increase the pH to 6.0, resulting in a very fine suspension. […] Each animal receives a 2.1 μmol/kg dose in 200 μl of suspension.
The following surgical procedure is used to prepare the animals for the experiment: the animals are anaesthetised, initially with 4% halothane, maintained with 2% halothane, both in a 1:1 oxygen: nitrous oxide mixture carrier. The anaesthetised animals are shaved on their ventral neck and craniodorsal back, then swabbed with a solution of 5% Hibitane in a 70% solution of ethanol in water. […] The patency of the cannula is assessed immediately before experimentation. […]
Withdrawn blood samples are analysed as follows: […]

- absorption time T max ([1]; 6% blend with lactose, 2.1 μmol/kg): 10 min
SMILES: CCCOc1ccc(NS(C)(=O)=O)cc1-c1nc2c(c(C)nn2C)c(=O)[nH]1 [Compound D, 1,3-dimethyl-6-(2-propoxy-5-methanesulfonylamidophenyl)-1,5-dihydropyrazolo[3,4-d]pyrimidin-4-one]

- Tmax (in vivo): 2 to 20 min
SMILES: CCOc1cnccc1-c1nc2n(C3CCCC3)[nH]c(CC)c-2c(=O)n1 [Compound C, 1-cyclopentyl-3-ethyl-6-(3-ethoxy-4-pyridyl)-pyrazolo[3,4-d]pyrimidin-4-one]

- Tmax (absorption time; time to maximum concentration in plasma) [2]: 5 min
- time to peak plasma concentration (absorption time Tmax) ([1]; citrate salt micronised to less than 5 μM, diluted by weight to 40% in lactose, nominal dose 8.4 μmol/kg, 3 rats): 2 min
SMILES: CCCc1nn(C)c2c(=O)[nH]c(-c3cc(S(=O)(=O)N4CCN(C)CC4)ccc3OCC)nc12 [Compound A, 5-[2-ethoxy-5-(4-methylpiperazinylsulfonyl)phenyl]-1-methyl-3-n-propyl-1,6-dihydro-7H-pyrazolo[4,3-d]pyrimidin-7-one]
